Measurements taken from the supplement of paper PMC4862054.

Assays:
Settings in all cases: incubation time: 72 h
[1] = tested on: BT-474; assay: normalised response (% of control), CellTox Green; higher = less cell death (100 = DMSO, 0 = benzethonium chloride kill control)
Procedure, shortened: (§1)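 Compound was dispensed into 384-well plates at 5 concentrations in 10-fold steps spanning a 10,000-fold range specific to that compound. Breast cancer cell lines were added as 20 µl suspension and left for 72 h before CellTox Green fluorescence (485/520 nm) and then CellTiter-Glo luminescence, read after 10 min at room temperature. Each reported value is the normalised signal at one concentration, with 0.1 % DMSO set at 100 and a positive kill control at 0 on each plate.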

[2] = tested on: BT-549; assay: as above
Procedure, shortened: as §1

[3] = tested on: CAL-120; assay: as above
Procedure, shortened: as §1

[4] = tested on: CAL-148; assay: as above
Procedure, shortened: as §1

[5] = tested on: CAL-51; assay: as above
Procedure, shortened: as §1

[6] = tested on: CAL-85-1; assay: as above
Procedure, shortened: as §1

[7] = tested on: DU-4475; assay: as above
Procedure, shortened: as §1

[8] = tested on: HCC1143; assay: as above
Procedure, shortened: as §1

[9] = tested on: HCC1599; assay: as above
Procedure, shortened: as §1

[10] = tested on: HCC1937; assay: as above
Procedure, shortened: as §1

[11] = tested on: HDQ-P1; assay: as above
Procedure, shortened: as §1

[12] = tested on: Hs578T; assay: as above
Procedure, shortened: as §1

[13] = tested on: MCF-10A; assay: as above
Procedure, shortened: as §1

[14] = tested on: MDA-MB-231; assay: as above
Procedure, shortened: as §1

[15] = tested on: MDA-MB-436; assay: as above
Procedure, shortened: as §1

[16] = tested on: MDA-MB-453; assay: as above
Procedure, shortened: as §1

[17] = tested on: MFM-223; assay: as above
Procedure, shortened: as §1

[18] = tested on: BT-474; assay: normalised response (% of control), CellTiter-Glo; higher = more viable cells (100 = DMSO, 0 = benzethonium chloride kill control)
Protocol: (§2)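 DSRT, 72 h incubation, CellTox Green / CellTiter-Glo readout. Signal is normalised to DMSO and benzethonium chloride controls. Value is the normalised response at dose 3.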

[19] = tested on: BT-549; assay: as above
Protocol: as §2

[20] = tested on: CAL-120; assay: as above
Protocol: as §2

[21] = tested on: CAL-148; assay: as above
Protocol: as §2

[22] = tested on: CAL-51; assay: as above
Protocol: as §2

[23] = tested on: CAL-85-1; assay: as above
Protocol: as §2

[24] = tested on: DU-4475; assay: as above
Protocol: as §2

[25] = tested on: HCC1143; assay: as above
Protocol: as §2

[26] = tested on: HCC1599; assay: as above
Protocol: as §2

[27] = tested on: HCC1937; assay: as above
Protocol: as §2

[28] = tested on: HDQ-P1; assay: as above
Protocol: as §2

[29] = tested on: Hs578T; assay: as above
Protocol: as §2

[30] = tested on: MCF-10A; assay: as above
Protocol: as §2

[31] = tested on: MDA-MB-231; assay: as above
Protocol: as §2

[32] = tested on: MDA-MB-436; assay: as above
Protocol: as §2

[33] = tested on: MDA-MB-453; assay: as above
Protocol: as §2

[34] = tested on: MDA-MB-468; assay: as above
Protocol: as §2

[35] = tested on: MFM-223; assay: as above
Protocol: as §2

[36] = tested on: SK-BR-3; assay: as above
Protocol: as §2

[37] = tested on: MDA-MB-468; assay: normalised response (% of control), CellTox Green; higher = less cell death (100 = DMSO, 0 = benzethonium chloride kill control)
Procedure, shortened: as §1

SMILES | normalised response [1] [%] | normalised response [2] [%] | normalised response [3] [%] | normalised response [4] [%] | normalised response [5] [%] | normalised response [6] [%] | normalised response [7] [%] | normalised response [8] [%] | normalised response [9] [%] | normalised response [10] [%] | normalised response [11] [%] | normalised response [12] [%] | normalised response [13] [%] | normalised response [14] [%] | normalised response [15] [%] | normalised response [16] [%] | normalised response [17] [%] | normalised response [18] [%] | normalised response [19] [%] | normalised response [20] [%] | normalised response [21] [%] | normalised response [22] [%] | normalised response [23] [%] | normalised response [24] [%] | normalised response [25] [%] | normalised response [26] [%] | normalised response [27] [%] | normalised response [28] [%] | normalised response [29] [%] | normalised response [30] [%] | normalised response [31] [%] | normalised response [32] [%] | normalised response [33] [%] | normalised response [34] [%] | normalised response [35] [%] | normalised response [36] [%] | normalised response [37] [%]
Nc1ncnc2c1c(COc1cccc(Cl)c1)nn2C1CCOCC1 (100 nM) | 102 | 98.5 | 103 | 107 | 101 | 108 | 109 | 95.8 | 114 | 112 | 102 | 51.6 | 109 | 119 | 102 | 111 | 103 | 102 | 98.8 | 101 | 109 | 84.5 | 103 | 100 | 104 | 102 | 95.5 | 101 | 78.4 | 110 | 108 | 104 | 93.5 | 102 | 105 | 109 | 
CN(C)CCN1C(=O)c2cccc3cc(N)cc(c23)C1=O [Amonafide] (100 nM) | 98.5 | 106 | 97.8 | 99.3 | 95.2 | 101 | 97.2 | 114 | 115 | 104 | 81.9 |  | 103 | 81.1 | 80.1 | 104 | 106 | 106 | 106 | 100 | 93.8 | 79.1 | 93.1 | 99.2 | 100 | 74.9 | 98.8 | 102 | 100 | 99.5 | 111 | 99.5 | 89.3 | 96.8 | 101 | 95.3 | 144
CC(C)(C#N)c1cc(Cn2cncn2)cc(C(C)(C)C#N)c1 [Anastrozole] (100 nM) | 102 | 103 | 99.9 | 106 | 73.3 | 101 | 103 | 102 | 102 | 99.9 | 97.9 | 87 | 74.4 | 106 | 93.3 | 102 | 100 | 104 | 104 | 101 | 98.8 | 67.3 | 98.6 | 107 | 97 | 100 | 95.3 | 102 | 113 | 112 | 97.4 | 104 | 105 | 91.3 | 104 | 106 | 
c1ccc([C@H]2CN3CCSC3=N2)cc1 [Levamisole] (100 nM) | 100 | 99.2 | 102 | 103 | 112 | 107 | 101 | 93.9 | 104 | 76.8 | 102 | 76.6 | 87.5 |  | 99.2 | 101 | 106 | 106 | 98.3 | 104 | 114 | 101 | 103 | 107 | 102 | 106 | 96.8 | 100 | 110 | 110 | 103 | 107 | 110 | 113 | 113 | 108 | 120
CNNCc1ccc(C(=O)NC(C)C)cc1 [Procarbazine] (100 nM) | 102 | 102 | 103 | 102 | 112 | 99.7 | 107 | 99.4 | 98.7 | 94.1 |  | 63.4 | 98.5 | 119 | 103 | 106 |  | 100 | 109 | 106 | 104 | 102 | 101 | 101 | 108 | 107 | 103 | 105 | 104 | 109 | 105 | 95.4 | 104 | 99.4 | 103 | 105 | 95.5
CN1CCN(CCOc2cc(OC3CCOCC3)c3c(Nc4c(Cl)ccc5c4OCO5)ncnc3c2)CC1 [Saracatinib] (100 nM) | 99.5 |  | 99 | 84.5 | 90.7 | 88.8 | 102 | 56.8 | 94.3 | 88.4 | 90.7 |  | 89.4 | 90.6 | 97 | 106 |  | 84.4 | 104 | 95.1 | 98.5 | 106 | 102 | 93.9 | 96.1 | 111 | 94.2 | 93.5 | 104 | 78.2 | 78.7 | 95.1 | 106 | 95.5 | 94.6 | 109 | 
Cn1cncc1[C@@](N)(c1ccc(Cl)cc1)c1ccc2c(c1)c(-c1cccc(Cl)c1)cc(=O)n2C [Tipifarnib] (100 nM) | 98.2 | 107 | 90.6 | 92.2 | 63.4 | 108 | 98.1 | 104 | 107 | 99.6 | 103 | 57.8 | 99.7 |  | 20.8 | 98.7 | 99.9 | 87.6 | 86.9 | 89.3 | 85.3 | 72 | 104 | 77.8 | 88.8 | 91.5 | 80.8 | 81.2 | 83.1 | 83.9 | 92.7 | 71.6 | 75.7 | 74.9 | 82.6 | 69.3 | 118
